pIC50: −log10 of the molar value.
Assays:
[1] = system: B-Raf^V600E mutant A375 melanoma cell; assay: Cell proliferation assay (CELLTITER 96), A375; format: cell-based; conditions: Homo sapiens, A-375; A375, 72 hours; read-out: Cytotoxicity (IC50 Ranking) A375 (B-Raf^V600E)
Procedure: (§1) Inhibition of cell growth by compounds was measured using CELLTITER 96® assay. The cytotoxicity of compounds was evaluated in B-Raf^V600E mutant A375 melanoma cell, B-Raf^V600E mutant COLO205 colon cancer cell, and SK-MEL-2 melanoma cell with wild type B-Raf (B-Raf^wt) and NRASQ^Q61R mutation. A375 and COLO205 cell line were cultured in DMEM containing 10% FCS and incubated at 37° C. in 5% CO2 atmosphere. SK-MEL-2 cell line was cultured in MEM containing 10% FCS and incubated at 37° C. in 5% CO2 atmosphere. A375, COLO205 and SK-MEL-2 cell were seeded into 96-well plates at 2000, 2000, and 4000 cells/well, respectively, and allowed to adhere for overnight. Then, these seeded cells were treated with increasing concentrations of the test compounds and incubated for another 72 hours. At the end of the incubation, CELLTITER 96® Aqueous One Solution Reagent (Promega) was added and incubated for 4 hours. Cell viability was determined by measuring absorbance at 490 nm using EMAX® microplate reader (Molecular Devices).
(§2) The 50% inhibitory concentration (IC50) value was calculated by plotting the percentage of growth inhibition against the concentration of compound, using GraphPad Prism5 software for curve fitting.

[2] = molecular target: T1, C-Raf kinase (Homo sapiens, UniProt P04049); assay: C-Raf kinase assay ([33P] incorporation into MEK1 K97R); format: biochemical; conditions: recombinant C-Raf, 8 μM ATP, 30 min, 30° C.; read-out: IC50 ranking against C-Raf kinase
T1 construct: purchased Upstate Biotechnology
Procedure: (§3) Inhibition of kinase activity by a test compound disclosed herein was estimated by quantifying the amount of [^33P] incorporation of a substrate in the presence of the test compound. Standard assay conditions were 2 ng of recombinant C-Raf kinase (Upstate Biotechnology) with 500 ng MEK1(K97R) in assay buffer (8 μM ATP, 0.5 μCi [^33P]ATP (specific activity 3000 Ci/mmol, PerkinElmer), 50 mM Tris/HCl (pH 7.5), and 1 mM EGTA, 1 mM Na3VO4, 1% 2-mercaptoethanol, 0.1% Brij 35, and 0.2 mg/ml BSA), and the test compound (diluted with 4% DMSO) or DMSO alone (as a control) in a final volume of 25 μL. Reactions were incubated at 30° C. for 30 min and stopped by adding 3% phosphoric acid, harvested onto a 96-well GF/B UniFilter (PerkinElmer) using a unifilter harvester (PerkinElmer), and counted with a TopCount microplate scintillation counter (PerkinElmer). The IC50 values of inhibitors were determined after carrying out assays at 3-fold serially diluted concentrations of each compound in duplication. The results were analyzed using linear regression software (GraphPad Prism 4; GraphPad Software Inc.).

[3] = system: SK-MEL-2 melanoma cell with wild type B-Raf (B-Raf^wt) and NRAS^Q61R mutation; assay: Cell proliferation assay (CELLTITER 96), SK-MEL-2; format: cell-based; conditions: Homo sapiens; SK-MEL-2, 72 hours; given as bound; read-out: Cytotoxicity (IC50 Ranking) SK-MEL-2 (NRAS^Q61R, B-Raf^wt)
Procedure: as §1, §2

[4] = molecular target: T2, B-Raf^V600E kinase (Homo sapiens, UniProt P15056, V600E); assay: B-Raf V600E kinase assay ([33P] incorporation into MEK1 K97R); format: biochemical; conditions: recombinant B-Raf^V600E, 8 μM ATP, 30 min, 30° C.; read-out: IC50 ranking against B-Raf^V600E kinase
T2 construct: purchased Upstate Biotechnology
Procedure: as §3, with “were 5” for “were 2”, “recombinant B-Raf^V600E” for “recombinant C-Raf”, “ng MEK1 (K97R)” for “ng MEK1(K97R)”

[5] = system: B-Raf^V600E mutant COLO205 colon cancer cell; assay: Cell proliferation assay (CELLTITER 96), COLO205; format: cell-based; conditions: Homo sapiens, COLO 205; COLO205, 72 hours; read-out: Cytotoxicity (IC50 Ranking) COLO205 (B-Raf^V600E)
Procedure: as §1, §2

[6] = molecular target: T3, B-Raf kinase (Homo sapiens, UniProt P15056); assay: B-Raf kinase assay ([33P] incorporation into MEK1 K97R); format: biochemical; conditions: recombinant B-Raf, 8 μM ATP, 30 min, 30° C.; read-out: IC50 ranking against B-Raf kinase
T3 construct: purchased Upstate Biotechnology
Procedure: Inhibition of kinase activity by a test compound disclosed herein was estimated by quantifying the amount of [^33P] incorporation of a substrate in the presence of the test compound. Standard assay conditions were 5 ng of recombinant B-Raf kinase (Upstate Biotechnology) with 500 ng MEK1(Map-erk kinase; K97R) in the assay buffer (8 μM ATP, 0.5 μCi [^33P]ATP (specific activity 3000 Ci/mmol, PerkinElmer), 50 mM Tris/HCl (pH 7.5), and 1 mM EGTA, 1 mM Na3VO4, 1% 2-mercaptoethanol, 0.1% Brij 35, and 0.2 mg/ml BSA) in a final volume of 25 μL. Reactions were incubated at 30° C. for 30 min and stopped by adding 3% phosphoric acid, harvested onto a 96-well GF/B UniFilter (PerkinElmer) using a unifilter harvester (PerkinElmer), and counted with a TopCount microplate scintillation counter (PerkinElmer). The IC50 values of inhibitors were determined after carrying out assays at 3-fold serially diluted concentrations of each compound in duplication. The results were analyzed using linear regression software (GraphPad Prism 4; GraphPad Software Inc.).

T3 sequence (P15056 whole entry): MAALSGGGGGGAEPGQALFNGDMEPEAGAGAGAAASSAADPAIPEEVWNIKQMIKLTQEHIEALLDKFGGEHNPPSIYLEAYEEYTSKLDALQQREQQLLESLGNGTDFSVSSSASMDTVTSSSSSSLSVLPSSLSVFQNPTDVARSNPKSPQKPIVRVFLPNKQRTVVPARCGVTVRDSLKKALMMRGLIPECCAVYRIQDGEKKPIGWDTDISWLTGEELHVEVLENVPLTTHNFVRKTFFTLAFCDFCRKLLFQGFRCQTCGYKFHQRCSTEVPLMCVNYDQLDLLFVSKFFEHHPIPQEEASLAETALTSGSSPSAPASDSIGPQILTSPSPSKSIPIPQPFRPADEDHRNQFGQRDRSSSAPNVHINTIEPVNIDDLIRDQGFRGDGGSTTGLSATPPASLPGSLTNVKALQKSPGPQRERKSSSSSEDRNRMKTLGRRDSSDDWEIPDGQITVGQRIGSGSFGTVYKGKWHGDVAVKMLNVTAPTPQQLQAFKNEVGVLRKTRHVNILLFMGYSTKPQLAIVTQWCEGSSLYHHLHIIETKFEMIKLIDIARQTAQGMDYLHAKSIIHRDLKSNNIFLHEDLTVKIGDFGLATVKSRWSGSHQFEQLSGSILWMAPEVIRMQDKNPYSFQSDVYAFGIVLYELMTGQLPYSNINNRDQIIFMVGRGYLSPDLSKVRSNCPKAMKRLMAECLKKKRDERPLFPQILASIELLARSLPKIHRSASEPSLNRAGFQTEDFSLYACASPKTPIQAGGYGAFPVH
T2 sequence (P15056 whole entry V600E): as the sequence (P15056 whole entry) above, with V600E counted along it
T1 sequence (P04049 whole entry): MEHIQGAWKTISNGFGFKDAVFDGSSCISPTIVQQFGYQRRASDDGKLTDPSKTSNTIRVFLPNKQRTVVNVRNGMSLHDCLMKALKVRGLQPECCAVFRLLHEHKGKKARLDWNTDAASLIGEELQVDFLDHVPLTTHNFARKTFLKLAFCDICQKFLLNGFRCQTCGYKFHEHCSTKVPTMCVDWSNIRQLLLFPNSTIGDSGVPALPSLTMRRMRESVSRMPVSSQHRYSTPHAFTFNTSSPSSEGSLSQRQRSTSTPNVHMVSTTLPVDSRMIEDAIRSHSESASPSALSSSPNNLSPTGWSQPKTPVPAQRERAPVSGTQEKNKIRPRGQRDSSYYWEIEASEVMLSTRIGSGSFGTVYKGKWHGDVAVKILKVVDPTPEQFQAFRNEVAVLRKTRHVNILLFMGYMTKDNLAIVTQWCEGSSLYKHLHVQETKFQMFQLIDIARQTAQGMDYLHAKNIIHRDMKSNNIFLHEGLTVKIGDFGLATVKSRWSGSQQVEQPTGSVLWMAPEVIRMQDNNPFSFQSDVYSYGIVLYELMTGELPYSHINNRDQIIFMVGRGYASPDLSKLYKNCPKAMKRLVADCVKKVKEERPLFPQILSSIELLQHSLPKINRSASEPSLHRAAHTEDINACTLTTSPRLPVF

pIC50 [2] | pIC50 [4] | pIC50 [6] | Compound | pIC50 [1] | pIC50 [3] | pIC50 [5]
> 6.52 | > 6.52 | > 6.52 | CCCS(=O)(=O)Nc1ccc(F)c(Nc2ccc3ncc(Nc4c(F)ccc(NS(=O)(=O)CCC)c4F)nc3c2)c1F [compound 1, N1-3-[(3-{2,6-difluoro-3-[(propylsulfonyl)amino]anilino}-6-quinoxalinyl)amino]-2,4-difluorophenyl-1-propanesulfonamide] | 5.00 to 6.00 | < 5.00 | 5.00 to 6.00
> 6.52 | > 6.52 | > 6.52 | CCCS(=O)(=O)Nc1ccc(F)c(Nc2ccc3ncc(Nc4c(F)cccc4F)nc3c2)c1F [compound 2, N1-(3-{[3-(2,6-difluoroanilino)-6-quinoxalinyl]amino}-2,4-difluorophenyl)-1-propanesulfonamide] | 6.00 to 6.52 | < 5.00 | 6.00 to 6.52
6.00 to 6.52 | 6.00 to 6.52 | 6.00 to 6.52 | CCCS(=O)(=O)Nc1ccc(F)c(Nc2ccc3ncc(OC)nc3c2N)c1F [compound 3, N1-{3-[(5-amino-3-methoxy-6-quinoxalinyl)amino]-2,4-difluorophenyl}-1-propanesulfonamide] |  |  | 
> 6.52 | > 6.52 | > 6.52 | CCCS(=O)(=O)Nc1ccc(F)c(Nc2ccc3ncc(OC)nc3c2[N+](=O)[O-])c1F [compound 4, N1-{2,4-difluoro-3-[(3-methoxy-5-nitro-6-quinoxalinyl)amino]phenyl}-1-propanesulfonamide] | > 6.52 | < 5.00 | > 6.52
> 6.52 | > 6.52 | > 6.52 | COc1cnc2ccc(Nc3c(F)ccc(NS(=O)(=O)CCCF)c3F)c([N+](=O)[O-])c2n1 [compound 5, N1-{2,4-difluoro-3-[(3-methoxy-5-nitro-6-quinoxalinyl)amino]phenyl}-3-fluoro-1-propanesulfonamide] | > 6.52 | < 5.00 | > 6.52
> 6.52 | > 6.52 | > 6.52 | CCCS(=O)(=O)Nc1ccc(F)c(Nc2ccc3ncc(OCCN4CCOCC4)nc3c2[N+](=O)[O-])c1F [compound 6, N1-(2,4-difluoro-3-{[3-(2-morpholinoethoxy)-5-nitro-6-quinoxalinyl]amino}phenyl)-1-propanesulfonamide] | > 6.52 | < 5.00 | > 6.52
> 6.52 | > 6.52 | > 6.52 | CCCS(=O)(=O)Nc1ccc(F)c(Nc2ccc3ncc(OCCOC)nc3c2[N+](=O)[O-])c1F [compound 7, N1-(2,4-difluoro-3-[3-(2-methoxyethoxy)-5-nitro-6-quinoxalinyl]aminophenyl)-1-propanesulfonamide] | > 6.52 | < 5.00 | > 6.52
6.00 to 6.52 | 6.00 to 6.52 | 6.00 to 6.52 | CCCS(=O)(=O)Nc1ccc(F)c(Nc2ccc3ncc(NC(=O)C4CC4)nc3c2)c1F [compound 8, N1-(7-{2,6-difluoro-3-[(propylsulfonyl)amino]anilino}-2-quinoxalinyl)-1-cyclopropanecarboxamide] | 5.00 to 6.00 | < 5.00 | 5.00 to 6.00
> 6.52 | > 6.52 | > 6.52 | CCCS(=O)(=O)Nc1ccc(F)c(Nc2ccc3ncc(OCCN(C)C)nc3c2[N+](=O)[O-])c1F [compound 9, N1-[3-({3-[2-(dimethylamino)ethoxy]-5-nitro-6-quinoxalinyl}amino)-2,4-difluorophenyl]-1-propanesulfonamide] | > 6.52 | < 5.00 | > 6.52
> 6.52 | > 6.52 | > 6.52 | CCCS(=O)(=O)Nc1ccc(F)c(Nc2ccc3ncc(OC)nc3c2C#N)c1F [compound 10, N1-{3-[(5-cyano-3-methoxy-6-quinoxalinyl)amino]-2,4-difluorophenyl}-1-propanesulfonamide] | > 6.52 | < 5.00 | > 6.52
> 6.52 | > 6.52 | > 6.52 | CCCS(=O)(=O)Nc1ccc(F)c(Nc2ccc3ncc(Nc4ccccc4F)nc3c2)c1F [compound 11, N1-(2,4-difluoro-3-{[3-(2-fluoroanilino)-6-quinoxalinyl]amino}phenyl)-1-propanesulfonamide] | 6.00 to 6.52 | < 5.00 | 5.00 to 6.00
> 6.52 | > 6.52 | > 6.52 | CCCS(=O)(=O)Nc1ccc(F)c(Nc2ccc3ncc(Nc4cccnc4)nc3c2)c1F [compound 12, N1-(2,4-difluoro-3-{[3-(3-pyridylamino)-6-quinoxalinyl]amino}phenyl)-1-propanesulfonamide] | 5.00 to 6.00 | < 5.00 | 6.00 to 6.52
> 6.52 | > 6.52 | > 6.52 | CCCS(=O)(=O)Nc1ccc(F)c(Nc2ccc3ncc(Nc4ccc(F)cc4F)nc3c2)c1F [compound 13, N1-(3-{[3-(2,4-difluoroanilino)-6-quinoxalinyl]amino}-2,4-difluorophenyl)-1-propanesulfonamide] | 6.00 to 6.52 | < 5.00 | 5.00 to 6.00
 |  | 5.00 to 6.00 | CCCS(=O)(=O)Nc1ccc(F)c(Nc2cc3nc(OC)cnc3cc2C)c1F [compound 32, N-(2,4-difluoro-3-(3-methoxy-7-methylquinoxalin-6-ylamino)phenyl)propane-1-sulfonamide] |  |  | 
5.00 to 6.00 | 5.00 to 6.00 | 5.00 to 6.00 | CCCS(=O)(=O)Nc1cc(Nc2ccc3ncc(OC)nc3c2C#N)ccc1C [compound 45, N-(5-(5-cyano-3-methoxyquinoxalin-6-ylamino)-2-methylphenyl)propane-1-sulfonamide] |  |  | 
